# Reference: paper PMC4263135, “A general strategy for developing cell-permeable photo-modulatable organic fluorescent probes for live-cell super-resolution imaging” (Nature Communications, 2014)
# Where a SMILES comes first, the peptide text is derived from it. Side-chain parts run from the residue outwards. [ ]: non-standard residue; d: D form. The star is where a group is joined. FITC = O=C1OC2(c3ccc(O)cc3Oc3cc(O)ccc32)c2ccc(NC(=S)*)cc21; Ahx = NCCCCCC(=O)O
# What was measured:
# live BSC-1 cells = assay: Intracellular distribution of probes by confocal microscopy (Trypan blue quench); assay type: cell-based, African green monkey (Cercopithecus aethiops); conditions: 37 °C
# Description: For F-actin imaging, BSC-1 cells were seeded into cell culture dishes at a density of 1.5 × 10^4 per well in growth medium (MEM supplemented with 10% FBS, 200 μl). After an overnight incubation, the cells were washed with phosphate-buffered saline (PBS, pH 7.4) for three times. A solution of the indicated probe (15 μM, 200 μl) in PBS was then added, and the cells were incubated in a 5% CO2 atmosphere at 37 °C for the indicated (5, 10, 15 and 30 min) times as mentioned in the main text. The supernatant was then discarded, and a solution of Trypan blue (200 μl, 1 mg ml^−1) in PBS was added to quench the extracellular fluorescence of the probes that were bound to either the cell membrane or the dish surface. After 2 min, Trypan blue was removed, the cells were washed gently twice with PBS and immersed in growth medium prior to optical imaging.
# The fluorescence signals were detected using a Fluoview FV1000 confocal laser scanning microscope (Olympus) equipped with a × 60/1.42 numerical aperture oil-immersion objective lens (FITC channel: excitation (EX) 488 nm, emission (EM) 510–530 nm; GFP channel: EX 488 nm, EM 508–532 nm; tdEosFP channel: EX 488 nm, EM 500–522 nm; RhB channel: EX 543 nm, EM 580–630 nm; FAM channel: EX 488 nm, EM 505–540 nm and LysoTracker Red channel: excitation (EX) 543 nm, emission (EM) 560–580 nm). All fluorescence images were analyzed with Image J software.
# F-actin = conditions: cited from earlier work
# From the text: The non-fluorescent PA-RhB fluorophore has been reported to be switched on by ultraviolet light, to be thermally reverted to a dark state, and to be excited by 560-nm laser light, emitting optimally at 600 nm in fixed cells. However, it is unknown whether the live-cell environment changes the properties of PA-RhB and whether the PA-RhB fluorophore can be used for live-cell super-resolution imaging.
molecule,measurement,setting,value
CC[C@H](C)[C@H](NC(=O)[C@H](CC(C)C)NC(=O)[C@H](CC(=O)O)NC(=O)[C@H](C)NC(=O)[C@@H](NC(=O)CNC(=O)[C@@H](N)CCSC)C(C)C)C(=O)N[C@@H](CCCCN)C(=O)N[C@@H](CCCCN)C(=O)N[C@@H](Cc1ccccc1)C(=O)N[C@@H](CCC(=O)O)C(=O)N[C@@H](CO)C(=O)N[C@H](C(=O)N[C@@H](CO)C(=O)N[C@@H](CCCCN)C(=O)N[C@@H](CCC(=O)O)C(=O)N[C@@H](CCC(=O)O)C(=O)NCC(=O)NCC(=O)NCC(=O)NCC(=O)N[C@@H](CCCCNC(=O)CCCCCNC(=S)Nc1ccc2c(c1)C(=O)OC21c2ccc(O)cc2Oc2cc(O)ccc21)C(=O)NCC(=O)NCC(=O)N[C@H](CCCNC(=N)N)C(=O)N[C@@H](CCCNC(=N)N)C(=O)N[C@H](CCCNC(=N)N)C(=O)N[C@@H](CCCNC(=N)N)C(=O)N[C@H](CCCNC(=N)N)C(=O)N[C@@H](CCCNC(=N)N)C(=O)N[C@@H](CCCNC(=N)N)C(=O)N[C@@H](CCCNC(=N)N)C(=O)O)[C@@H](C)CC [probe 1] (H-MGVADLIKKFESISKEEGGGGK([Ahx-FITC])GG[dR]R[dR]R[dR]RRR-OH),intracellular distribution,"live BSC-1 cells; 15 μM in PBS, 5 to 30 min, confocal fluorescence",diffuse localization throughout the cytoplasm
same,time to enter the live cells efficiently,"live BSC-1 cells; cell uptake, probe 15 μM in PBS, Trypan blue quench of extracellular fluorescence",≤ 5 min
MGVADLIKKFESISKEE [Lifeact],affinity for F-actin in live cells,F-actin,low affinity
